Reference: ChEMBL document CHEMBL1124113, “Melanin concentrating hormone analogues: contraction of the cyclic structure. 1. Agonist activity” (J Med Chem, 1988)
Blank lines part the entries; values can stand above or below the compound they belong to. Bridge positions count the residues as written; N and C are the ends. Peptide text beside a SMILES is read from it.

Key:
[1] = tested on: Melanin-concentrating hormone receptor (Synbranchus marmoratus); experiment: Melanin concentrating hormone(MCH) activity, causes melanosome aggregation within integumental fish melanocytes and lightening of the skin; d = Inactive at 10e-6 M
[2] = tested on: melanocortin receptor (frog); experiment: Melanosome dispersion (skin darkening) within melanocytes (Alpha-MSH-like activity), measured on tetrapod skin; e =Inactive at 10e-5
[3] = tested on: melanocortin receptor (frog); experiment: Melanosome dispersion (skin darkening) within melanocytes (Alpha-MSH-like activity), measured on tetrapod skin; e = Inactive at 10e-5
[4] = tested on: melanocortin receptor (frog); experiment: Melanosome dispersion (skin darkening) within melanocytes (Alpha-MSH-like activity), measured on tetrapod skin; Inactive at 10e-5
[5] = tested on: Melanin-concentrating hormone receptor (Synbranchus marmoratus); experiment: Melanin concentrating hormone(MCH) activity, causes melanosome aggregation within integumental fish melanocytes and lightening of the skin; d = Inactive at 10e-6 M; remark: listed apart in the source

Compound: CSCC[C@H](NC(=O)[C@H](C)N)C(=O)N[C@H](C(=O)NCC(=O)N[C@@H](CCCN=C(N)N)C(=O)N[C@H]1CSSC[C@@H](C(=O)N[C@@H](Cc2c[nH]c3ccccc23)C(=O)N[C@@H](CCC(=O)O)C(=O)N[C@H](C(=O)O)C(C)C)NC(=O)[C@@H]2CCCN2C(=O)[C@H](CCCN=C(N)N)NC(=O)[C@H](Cc2ccc(O)cc2)NC1=O)C(C)C (H-AMVGRCYRPCWEV-OH; disulfide 6-10)
- EC50 [1]: Not Active

Compound: CC(C)[C@H](NC(=O)[C@H](CCC(=O)O)NC(=O)[C@H](Cc1c[nH]c2ccccc12)NC(=O)[C@@H]1CSSC[C@H](N)C(=O)N[C@@H](Cc2ccc(O)cc2)C(=O)N[C@@H](CCCN=C(N)N)C(=O)N2CCC[C@H]2C(=O)N1)C(=O)O (H-CYRPCWEV-OH; disulfide 1-5)
- EC50 [4]: Not Active

Compound: CSCC[C@H](NC(=O)[C@H](C)NC(=O)[C@H](CCCN=C(N)N)NC(=O)[C@H](CCSC)NC(=O)[C@@H](NC(=O)[C@@H](N)CC(=O)O)[C@@H](C)O)C(=O)N[C@H]1CSSC[C@@H](C(=O)N[C@@H](Cc2c[nH]c3ccccc23)C(=O)N[C@@H](CCC(=O)O)C(=O)N[C@H](C(=O)O)C(C)C)NC(=O)[C@@H]2CCCN2C(=O)[C@H](CCCN=C(N)N)NC(=O)[C@H](Cc2ccc(O)cc2)NC(=O)[C@H](C(C)C)NC(=O)[C@H](CCCN=C(N)N)NC(=O)CNC1=O (H-DTMRAMCGRVYRPCWEV-OH; disulfide 7-14)
- EC50 [1]: Not Active

Compound: CSCC[C@H](NC(=O)[C@H](C)NC(=O)[C@H](CCCN=C(N)N)NC(=O)[C@H](CCSC)NC(=O)[C@@H](NC(=O)[C@@H](N)CC(=O)O)[C@@H](C)O)C(=O)N[C@H](C(=O)N[C@H]1CSSC[C@@H](C(=O)N[C@@H](Cc2c[nH]c3ccccc23)C(=O)N[C@@H](CCC(=O)O)C(=O)N[C@H](C(=O)O)C(C)C)NC(=O)[C@@H]2CCCN2C(=O)[C@H](CCCN=C(N)N)NC(=O)[C@H](Cc2ccc(O)cc2)NC(=O)[C@H](C(C)C)NC(=O)[C@H](CCCN=C(N)N)NC1=O)C(C)C (H-DTMRAMVCRVYRPCWEV-OH; disulfide 8-14)
- EC50 [1]: Not Active

Compound: CSCC[C@H](NC(=O)[C@H](C)NC(=O)[C@H](CCCN=C(N)N)NC(=O)[C@H](CCSC)NC(=O)[C@@H](NC(=O)[C@@H](N)CC(=O)O)[C@@H](C)O)C(=O)N[C@H](C(=O)NCC(=O)N[C@@H](CCCN=C(N)N)C(=O)N[C@H]1CSSC[C@@H](C(=O)N[C@@H](Cc2c[nH]c3ccccc23)C(=O)N[C@@H](CCC(=O)O)C(=O)N[C@H](C(=O)O)C(C)C)NC(=O)[C@@H]2CCCN2C(=O)[C@H](CCCN=C(N)N)NC(=O)[C@H](Cc2ccc(O)cc2)NC1=O)C(C)C (H-DTMRAMVGRCYRPCWEV-OH; disulfide 10-14)
- EC50 [5]: Not Active

Next, values leading:

- EC50 [1]: Not Active
- EC50 [2]: Not Active
Compound: CSCC[C@H](NC(=O)[C@H](C)N)C(=O)N[C@H]1CSSC[C@@H](C(=O)N[C@@H](Cc2c[nH]c3ccccc23)C(=O)N[C@@H](CCC(=O)O)C(=O)N[C@H](C(=O)O)C(C)C)NC(=O)[C@@H]2CCCN2C(=O)[C@H](CCCN=C(N)N)NC(=O)[C@H](Cc2ccc(O)cc2)NC(=O)[C@H](C(C)C)NC(=O)[C@H](CCCN=C(N)N)NC(=O)CNC1=O (H-AMCGRVYRPCWEV-OH; disulfide 3-10)

- EC50 [3]: Not Active
Compound: CSCC[C@H](NC(=O)[C@H](C)N)C(=O)N[C@H](C(=O)N[C@H]1CSSC[C@@H](C(=O)N[C@@H](Cc2c[nH]c3ccccc23)C(=O)N[C@@H](CCC(=O)O)C(=O)N[C@H](C(=O)O)C(C)C)NC(=O)[C@@H]2CCCN2C(=O)[C@H](CCCN=C(N)N)NC(=O)[C@H](Cc2ccc(O)cc2)NC(=O)[C@H](C(C)C)NC(=O)[C@H](CCCN=C(N)N)NC1=O)C(C)C (H-AMVCRVYRPCWEV-OH; disulfide 4-10)

- EC50 [1]: Not Active
Compound: CC(C)[C@H](NC(=O)[C@H](CCC(=O)O)NC(=O)[C@H](Cc1c[nH]c2ccccc12)NC(=O)[C@@H]1CSSC[C@H](N)C(=O)NCC(=O)N[C@@H](CCCN=C(N)N)C(=O)N[C@@H](C(C)C)C(=O)N[C@@H](Cc2ccc(O)cc2)C(=O)N[C@@H](CCCN=C(N)N)C(=O)N2CCC[C@H]2C(=O)N1)C(=O)O (H-CGRVYRPCWEV-OH; disulfide 1-8)

- EC50 [4]: Not Active
Compound: CC(C)[C@H](NC(=O)[C@H](CCC(=O)O)NC(=O)[C@H](Cc1c[nH]c2ccccc12)NC(=O)[C@@H]1CSSC[C@H](N)C(=O)N[C@@H](CCCN=C(N)N)C(=O)N[C@@H](C(C)C)C(=O)N[C@@H](Cc2ccc(O)cc2)C(=O)N[C@@H](CCCN=C(N)N)C(=O)N2CCC[C@H]2C(=O)N1)C(=O)O (H-CRVYRPCWEV-OH; disulfide 1-7)
